Assay results reported in PubChem BioAssay AID2060489 (Molecular Pharmacology Branch, DTP, NCI, 2025).

Tested on: 922993-354-T-J3-PDC complex spheroids, viability
Assay: Anticancer human tumor 922993-354-T-J3-PDC patient-derived endometrial carcinoma cell line growth inhibition [GQUAD]
Conditions: for IC50: curve of first compound; for viability, T/C: stronger effect = lower value
Outline: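 Multi-cell-type spheroids of tumor cells with HUVEC and mesenchymal stem cells, treated with drug combinations. Concentrations descend in half-log steps from near clinical Cmax, or from 10 microM where Cmax is unknown; viability read-out.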

[1] = second compound 0.0316 µM, first compound 0.0316 µM
[2] = second compound 0.0316 µM, first compound 0.1 µM
[3] = second compound 0.0316 µM, first compound 0.316 µM
[4] = second compound 0.0316 µM, first compound 1 µM
[5] = second compound 0.0316 µM, first compound 3.16 µM
[6] = second compound 0.0316 µM, first compound 10 µM
[7] = second compound 0.1 µM, first compound 0.0316 µM
[8] = second compound 0.1 µM, first compound 0.1 µM
[9] = second compound 0.1 µM, first compound 0.316 µM
[10] = second compound 0.1 µM, first compound 1 µM
[11] = second compound 0.1 µM, first compound 3.16 µM
[12] = second compound 0.1 µM, first compound 10 µM
[13] = second compound 0.316 µM, first compound 0.0316 µM
[14] = second compound 0.316 µM, first compound 0.1 µM
[15] = second compound 0.316 µM, first compound 0.316 µM
[16] = second compound 0.316 µM, first compound 1 µM
[17] = second compound 0.316 µM, first compound 3.16 µM
[18] = second compound 0.316 µM, first compound 10 µM
[19] = second compound 1 µM, first compound 0.0316 µM
[20] = second compound 1 µM, first compound 0.1 µM
[21] = second compound 1 µM, first compound 0.316 µM
[22] = second compound 1 µM, first compound 1 µM
[23] = second compound 1 µM, first compound 3.16 µM
[24] = second compound 1 µM, first compound 10 µM
[25] = second compound 3.16 µM, first compound 0.0316 µM
[26] = second compound 3.16 µM, first compound 0.1 µM
[27] = second compound 3.16 µM, first compound 0.316 µM
[28] = second compound 3.16 µM, first compound 1 µM
[29] = second compound 3.16 µM, first compound 3.16 µM
[30] = second compound 3.16 µM, first compound 10 µM
[31] = second compound 10 µM, first compound 0.0316 µM
[32] = second compound 10 µM, first compound 0.1 µM
[33] = second compound 10 µM, first compound 0.316 µM
[34] = second compound 10 µM, first compound 1 µM
[35] = second compound 10 µM, first compound 3.16 µM
[36] = second compound 10 µM, first compound 10 µM
[37] = second compound 0.0316 µM, first compound 0.000999 µM
[38] = second compound 0.0316 µM, first compound 0.00316 µM
[39] = second compound 0.0316 µM, first compound 0.00999 µM
[40] = second compound 0.0316 µM, first compound 0.0999 µM
[41] = second compound 0.1 µM, first compound 0.000999 µM
[42] = second compound 0.1 µM, first compound 0.00316 µM
[43] = second compound 0.1 µM, first compound 0.00999 µM
[44] = second compound 0.1 µM, first compound 0.0999 µM
[45] = second compound 0.316 µM, first compound 0.000999 µM
[46] = second compound 0.316 µM, first compound 0.00316 µM
[47] = second compound 0.316 µM, first compound 0.00999 µM
[48] = second compound 0.316 µM, first compound 0.0999 µM
[49] = second compound 1 µM, first compound 0.000999 µM
[50] = second compound 1 µM, first compound 0.00316 µM
[51] = second compound 1 µM, first compound 0.00999 µM
[52] = second compound 1 µM, first compound 0.0999 µM
[53] = second compound 3.16 µM, first compound 0.000999 µM
[54] = second compound 3.16 µM, first compound 0.00316 µM
[55] = second compound 3.16 µM, first compound 0.00999 µM
[56] = second compound 3.16 µM, first compound 0.0999 µM
[57] = second compound 10 µM, first compound 0.000999 µM
[58] = second compound 10 µM, first compound 0.00316 µM
[59] = second compound 10 µM, first compound 0.00999 µM
[60] = second compound 10 µM, first compound 0.0999 µM
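Note: spheroids exposed to compounds for seven days.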
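Throughout, for viability, T/C: 100% = DMSO vehicle control viability.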

## C=CC(=O)N1CCN(c2nc(=O)n(-c3c(C)ccnc3C(C)C)c3nc(-c4c(O)cccc4F)c(F)cc23)C(C)C1 (stereo not drawn) + Cc1cnc(CNC(=O)c2c(=O)c3ccc(N4CCCN(C)CC4)nc3n3c2sc2ccccc23)cn1
Second compound 0.0316 µM
  IC50: > 10000 nM
Second compound 0.1 µM
  IC50: > 10000 nM
Second compound 0.316 µM
  IC50: > 10000 nM
Second compound 1 µM
  IC50: > 10000 nM
Second compound 3.16 µM
  IC50: > 10000 nM
Second compound 10 µM
  IC50: 31.6 nM
[1]
  viability, T/C: 109%
[2]
  viability, T/C: 89.1%
[3]
  viability, T/C: 79.2%
[4]
  viability, T/C: 99.5%
[5]
  viability, T/C: 80.4%
[6]
  viability, T/C: 100%
[7]
  viability, T/C: 71.2%
[8]
  viability, T/C: 73.2%
[9]
  viability, T/C: 52.8%
[10]
  viability, T/C: 67%
[11]
  viability, T/C: 77.2%
[12]
  viability, T/C: 53.9%
[13]
  viability, T/C: 49.1%
[14]
  viability, T/C: 57.5%
[15]
  viability, T/C: 51.8%
[16]
  viability, T/C: 53.1%
[17]
  viability, T/C: 55.1%
[18]
  viability, T/C: 61.9%
[19]
  viability, T/C: 55.2%
[20]
  viability, T/C: 61.1%
[21]
  viability, T/C: 46.9%
[22]
  viability, T/C: 47.7%
[23]
  viability, T/C: 53.8%
[24]
  viability, T/C: 55.1%
[25]
  viability, T/C: 53.9%
[26]
  viability, T/C: 55.9%
[27]
  viability, T/C: 55.4%
[28]
  viability, T/C: 51.3%
[29]
  viability, T/C: 65.7%
[30]
  viability, T/C: 53.7%
[31]
  viability, T/C: 52.5%
[32]
  viability, T/C: 58.1%
[33]
  viability, T/C: 53.2%
[34]
  viability, T/C: 46%
[35]
  viability, T/C: 64%
[36]
  viability, T/C: 70%

## CCc1c2c(nc3ccc(O)cc13)-c1cc3c(c(=O)n1C2)COC(=O)[C@]3(O)CC + Cc1cnc(CNC(=O)c2c(=O)c3ccc(N4CCCN(C)CC4)nc3n3c2sc2ccccc23)cn1
Second compound 0.0316 µM
  IC50: 11.3 nM
Second compound 0.1 µM
  IC50: 5.27 nM
Second compound 0.316 µM
  IC50: < 0.999 nM
Second compound 1 µM
  IC50: 5.12 nM
Second compound 3.16 µM
  IC50: < 0.999 nM
Second compound 10 µM
  IC50: < 0.999 nM
[37]
  viability, T/C: 85.3%
[38]
  viability, T/C: 74.5%
[39]
  viability, T/C: 54.5%
[1]
  viability, T/C: 25.2%
[40]
  viability, T/C: 24.4%
[3]
  viability, T/C: 31.6%
[41]
  viability, T/C: 66.8%
[42]
  viability, T/C: 63.4%
[43]
  viability, T/C: 33.2%
[7]
  viability, T/C: 23.4%
[44]
  viability, T/C: 29.4%
[9]
  viability, T/C: 33.4%
[45]
  viability, T/C: 53.9%
[46]
  viability, T/C: 43.3%
[47]
  viability, T/C: 32.2%
[13]
  viability, T/C: 26.3%
[48]
  viability, T/C: 45.5%
[15]
  viability, T/C: 52.1%
[49]
  viability, T/C: 48.7%
[50]
  viability, T/C: 60.6%
[51]
  viability, T/C: 43.5%
[19]
  viability, T/C: 37%
[52]
  viability, T/C: 42.1%
[21]
  viability, T/C: 38.1%
[53]
  viability, T/C: 44.7%
[54]
  viability, T/C: 44%
[55]
  viability, T/C: 46.5%
[25]
  viability, T/C: 49%
[56]
  viability, T/C: 47.4%
[27]
  viability, T/C: 38.8%
[57]
  viability, T/C: 37.6%
[58]
  viability, T/C: 49.3%
[59]
  viability, T/C: 45.3%
[31]
  viability, T/C: 44.1%
[60]
  viability, T/C: 45%
[33]
  viability, T/C: 26%

## Cc1cccc(N(C)C(=O)C2C(O)CCN2c2nc(C)cc(C(F)(F)F)c2C#N)c1 (stereo not drawn) + Cc1cnc(CNC(=O)c2c(=O)c3ccc(N4CCCN(C)CC4)nc3n3c2sc2ccccc23)cn1
Second compound 0.0316 µM
  IC50: > 10000 nM
Second compound 0.1 µM
  IC50: 4160 nM
Second compound 0.316 µM
  IC50: < 31.6 nM
Second compound 1 µM
  IC50: > 10000 nM
Second compound 3.16 µM
  IC50: < 31.6 nM
Second compound 10 µM
  IC50: < 31.6 nM
[1]
  viability, T/C: 78%
[2]
  viability, T/C: 87.2%
[3]
  viability, T/C: 88%
[4]
  viability, T/C: 77.9%
[5]
  viability, T/C: 74.6%
[6]
  viability, T/C: 68.6%
[7]
  viability, T/C: 65.1%
[8]
  viability, T/C: 62.4%
[9]
  viability, T/C: 59%
[10]
  viability, T/C: 52.9%
[11]
  viability, T/C: 55.8%
[12]
  viability, T/C: 43.9%
[13]
  viability, T/C: 50.3%
[14]
  viability, T/C: 42.7%
[15]
  viability, T/C: 43.4%
[16]
  viability, T/C: 53.7%
[17]
  viability, T/C: 45.5%
[18]
  viability, T/C: 47.1%
[19]
  viability, T/C: 54.7%
[20]
  viability, T/C: 59%
[21]
  viability, T/C: 54.4%
[22]
  viability, T/C: 46.1%
[23]
  viability, T/C: 57.8%
[24]
  viability, T/C: 53.5%
[25]
  viability, T/C: 50.9%
[26]
  viability, T/C: 44.4%
[27]
  viability, T/C: 41.3%
[28]
  viability, T/C: 46.1%
[29]
  viability, T/C: 51.1%
[30]
  viability, T/C: 44.6%
[31]
  viability, T/C: 39.6%
[32]
  viability, T/C: 48.5%
[33]
  viability, T/C: 56.8%
[34]
  viability, T/C: 39.1%
[35]
  viability, T/C: 50.6%
[36]
  viability, T/C: 41.4%

## Cn1ncnc1[C@H]1c2n[nH]c(=O)c3cc(F)cc(c23)N[C@@H]1c1ccc(F)cc1 + Cc1cnc(CNC(=O)c2c(=O)c3ccc(N4CCCN(C)CC4)nc3n3c2sc2ccccc23)cn1
Second compound 0.0316 µM
  IC50: > 316 nM
Second compound 0.1 µM
  IC50: 71.7 nM
Second compound 0.316 µM
  IC50: 7.19 nM
Second compound 1 µM
  IC50: < 0.999 nM
Second compound 3.16 µM
  IC50: < 0.999 nM
Second compound 10 µM
  IC50: < 0.999 nM
[37]
  viability, T/C: 93.2%
[38]
  viability, T/C: 78.7%
[39]
  viability, T/C: 76.6%
[1]
  viability, T/C: 72.8%
[40]
  viability, T/C: 72.3%
[3]
  viability, T/C: 59.9%
[41]
  viability, T/C: 65.4%
[42]
  viability, T/C: 69.2%
[43]
  viability, T/C: 58.3%
[7]
  viability, T/C: 50.7%
[44]
  viability, T/C: 52.2%
[9]
  viability, T/C: 39.3%
[45]
  viability, T/C: 43.5%
[46]
  viability, T/C: 54.2%
[47]
  viability, T/C: 55.6%
[13]
  viability, T/C: 44.2%
[48]
  viability, T/C: 41.6%
[15]
  viability, T/C: 32%
[49]
  viability, T/C: 49.2%
[50]
  viability, T/C: 53.4%
[51]
  viability, T/C: 45.9%
[19]
  viability, T/C: 49.9%
[52]
  viability, T/C: 50.3%
[21]
  viability, T/C: 49.6%
[53]
  viability, T/C: 41.9%
[54]
  viability, T/C: 50.1%
[55]
  viability, T/C: 44%
[25]
  viability, T/C: 49.5%
[56]
  viability, T/C: 49.4%
[27]
  viability, T/C: 37.2%
[57]
  viability, T/C: 49%
[58]
  viability, T/C: 43.6%
[59]
  viability, T/C: 48.4%
[31]
  viability, T/C: 49%
[60]
  viability, T/C: 49.3%
[33]
  viability, T/C: 41.6%
